From patent US20200253996A1, “TCTP INHIBITING AGENTS FOR THE TREATMENT OF PROLIFERATIVE DISEASES, INFECTIOUS DISEASES, ALLERGIES, INFLAMMATIONS AND/OR ASTHMA” (UNIVERSITE PARIS-SUD, priority 2017, published 2020) come the findings set out here.

The structures appear in SMILES notation. Read-outs that look alike come from different tables or passages of the source.

For one series, the target named is T1, TCTP (Homo sapiens, UniProt P13693).
T1 sequence (P13693 1-172): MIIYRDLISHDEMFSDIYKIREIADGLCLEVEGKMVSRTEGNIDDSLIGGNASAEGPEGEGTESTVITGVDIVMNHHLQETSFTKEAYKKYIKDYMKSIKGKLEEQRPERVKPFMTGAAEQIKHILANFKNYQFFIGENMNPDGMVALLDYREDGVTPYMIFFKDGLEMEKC
The series can be described thus: Interaction with TCTP by surface plasmon resonance (SPR), Biacore T200. The settings on record: for Kd: TCTP bonded to chip, Biacore T200. It counts as binding. As to the method: The interaction of the synthesized molecules with TCTP was evaluated by the surface plasmon resonance (SPR) technique using the Biacore T200 apparatus.
A beam of polarized monochromatic light illuminates a glass interface between two media with different refractive indices, since the angle of incidence is greater than the limiting angle, all the light is reflected, a phenomenon known as total internal reflection. There is then no refraction but an electromagnetic component of the light, the evanescent wave propagates over a distance equivalent to its own wavelength, perpendicular to the interface. At the level of the gold leaf located at the interface between the two media, a resonance between the gold plasmons and the evanescent wave is observed, which results in a loss of light energy in the beam reflected at a precise angle called the resonance angle. This angle is sensitive to the refractive index of the medium wherein the evanescent wave propagates.
A continuous measurement of the variations in the angle of refraction is carried out using a micro-refractometer producing a sensorgram that allows the fixation of the molecules injected into the microfluidic cell to be monitored in real time. The resonance signal is expressed in resonance units (RU) and reports what is present at a given time in the microfluidic cell.
Thus, TCTP is bonded to a chip consisting of a layer of dextran on a gold foil, which in turn is placed on a glass plate. This layer is sandwiched between a microfluidic cell and a prism.
The synthesized compounds are passed through the microfluidic cell and their interaction is evaluated through the received SPR signal (Table 1).
(In general: SPR reads the build-up and loss of mass on a sensor chip optically.)

Series [1] has as its system human cancer line HCT116 (colorectal carcinoma). The series can be described thus: Cytotoxic activity on HCT116, 72 hours incubation. The following applies: for % (viability) at 1 μM: HCT116, 1 μM; for antiproliferative activity profile (in words): compared with sertraline; for IC50: Homo sapiens, HCT-116, HCT116, 72 hours incubation, concentration inducing 50% cell death; for % (viability) at 10 μM: HCT116, 10 μM. The series is classed as cell-based. The procedure: The cytotoxic activity of the prepared compounds was evaluated on the human cancer line HCT116 (colorectal carcinoma). The selected line was incubated at 37° C. in the presence of one of the prepared compounds added to the culture medium at various concentrations. The inhibitory concentration inducing 50% cell death (IC50) was determined after 72 hours incubation for each compound (Table 1).

A further series has as its system human HCT116 cells. The experiment in a line: Inhibition of cell growth, CellTiter Glo assay. The following applies: for GI50 / CC50: Homo sapiens. As to the method: The viability and proliferation of human HCT116 cells is measured using the “CellTiter Glo®” assay (Promega), which is a luminescent measure of the number of living cells. Sertraline and AC070 were tested at 10 concentrations and results are expressed as GI50, TGI, LC50 and IC50 relative to control cells (DMSO).
The CellTiter-Glo® assay is a homogeneous method for determining the number of viable cells in culture based on a quantification of the ATP present, an indicator of metabolically active cells. The homogeneous test procedure involves the addition of a single reagent (the CellTiter-Glo® reagent) directly to the cultured cells in serum-enriched medium.
The results of the test are reported in the following Tables 2 and 3 (Table 2: sertraline and Table 3: AC070): […]
Background: Cellular ATP, detected with luciferase, serves as a proxy for viable cell number.

The term Kd denotes a measure of binding affinity in units of concentration. On TCTP, `CC(=O)NC1CCC(c2cccc(S[C@@H]3OC(COC(C)=O)[C@@H](OC(C)=O)C(OC(C)=O)C3OC(C)=O)c2)c2ccccc21` (stereo in doubt) [AC268-cis, Cis-(2S,3R,4S,5R,6R)-2-((3-((4S)-4-acetamido-1,2,3,4-tetrahydronaphthalen-1-yl)phenyl)thio)-6-(acetoxymethyl)tetrahydro-2H-pyran-3,4,5-triyl triacetate] came in with a dissociation constant Kd of 170 ± 31 µM.
At TCTP, `CC(=O)N[C@@H]1CC[C@H](c2ccc(C(=O)O)cc2)c2ccccc21` (relative stereo) [VM055-cis, Cis-4-(4-acetamido-1,2,3,4-tetrahydronaphthalen-1-yl)benzoic acid] came in with a Kd of 176 µM.
On to `Clc1ccc(C2CCCc3ccccc32)cc1Cl` (centres unmarked) [AC096, 1-(3,4-dichlorophenyl)-1,2,3,4-tetrahydronaphthalene], for which, on TCTP, the “affinity for TCTP (in words)” value was “excellent affinity” and the Kd stood at 14 ± 7 µM. Besides, in series [1], the “% (viability) at 1 μM” value is given as 1 μM: 29 ± 3% and the “antiproliferative activity profile (in words)” value is “identical to that of sertraline”.
The IC50 is the concentration needed to halve the response being measured. High values mean a need for much substance, low ones inhibition by little substance. Compound `COc1ccc2c(c1)CCCC2c1cccc(Cl)c1` (centres unmarked) [AC101, 1-(3-chlorophenyl)-6-methoxy-1,2,3,4-tetrahydronaphthalene] yielded a Kd at TCTP of 145 ± 34 µM. Further, the concentration for half-maximal inhibition (IC50) in series [1] was 7 ± 0.4 µM.
Turning to `Ic1cccc(C2CCCc3ccccc32)c1` (centres unmarked) [AC041, 1-(3-iodophenyl)-1,2,3,4-tetrahydronaphthalene], at TCTP, the “affinity for TCTP (in words)” value is listed as “excellent affinity” and the dissociation constant Kd amounted to 59 ± 30 µM. Also, in series [1], half-maximal inhibition (IC50) was put at 9 ± 1.2 µM and the “antiproliferative activity profile (in words)” value is given as “identical to that of sertraline”.
`CC(=O)NC1CCC(c2cccc(I)c2)c2ccccc21` (mixture of isomers) [AC087, N-(4-(3-iodophenyl)-1,2,3,4-tetrahydronaphthalen-1-yl)acetamide]: at TCTP, the “affinity for TCTP (in words)” value is “excellent affinity” and the Kd came out at 16 ± 11 µM. For the same compound, in series [1], the “% (viability) at 10 μM” value is listed as 10 μM: 33% (viability) and the “antiproliferative activity profile (in words)” value is “identical to that of sertraline”.
In the case of `COc1ccc2c(c1)CCCC2c1ccc(Cl)c(Cl)c1` (centres unmarked) [AC095, 1-(3,4-dichlorophenyl)-6-methoxy-1,2,3,4-tetrahydronaphthalene], the dissociation constant (Kd) on TCTP was 150 µM. The “% (viability) at 10 μM” value in series [1] is given as 10 μM: 40% (viability).
A word on the GI50: it is the concentration that inhibits growth by half. `CC(=O)NC1CCC(c2ccc3ccccc3c2)c2ccccc21` (centres unmarked) [AC070, N-(1,2,3,4-tetrahydro-[1,2′-binaphthalen]-4-yl) acetamide]: the “cytotoxicity compared with sertraline” value in the series with human HCT116 cells is on record as “less cytotoxic than sertraline”. Moreover, the “activity on cell growth compared with sertraline” value in the series with human HCT116 cells (HCT116) is on record as “slightly less active than sertraline”. This compound also displayed a TGI50 1 in the series with human HCT116 cells (HCT116, CellTiter Glo, determination 1) of 1.48 µM. In addition, the TGI50 2 in the series on human HCT116 cells (HCT116, CellTiter Glo, determination 2) worked out at 1.44 µM. In addition, the TGI50 3 in the series on human HCT116 cells (HCT116, CellTiter Glo, determination 3) worked out at 1.41 µM. The compound also came in with a TGI50 Mean with human HCT116 cells (HCT116, CellTiter Glo, mean) of 1.44 µM. This compound also yielded a TGI50 Median in the series with human HCT116 cells (HCT116, CellTiter Glo, median) of 1.44 µM. For the same compound, the 50% growth inhibitory concentration (GI50) in the series with human HCT116 cells (HCT-116, read-out: GI50 1) was determined as 0.909 µM; with human HCT116 cells (HCT-116, read-out: GI50 2), 0.881 µM; with human HCT116 cells (HCT-116, read-out: GI50 3) it was 0.878 µM; in the series on human HCT116 cells (HCT-116, read-out: GI50 Mean), 0.89 µM; with human HCT116 cells (HCT-116, read-out: GI50 Median), 0.889 µM; with human HCT116 cells (HCT-116, read-out: cell growth inhibition constant GI50) it was 0.889 µM. In addition, the CC50 with human HCT116 cells (HCT-116, read-out: LC50 1) is 2.34 µM; in the series with human HCT116 cells (HCT-116, read-out: LC50 2) it was 2.3 µM; with human HCT116 cells (HCT-116, read-out: LC50 3), 2.2 µM; in the series with human HCT116 cells (HCT-116, read-out: LC50 Mean) it was 2.28 µM; in the series on human HCT116 cells (HCT-116, read-out: LC50 Median), 2.28 µM; with human HCT116 cells (HCT-116, read-out: lethal concentration LC50), 2.2 µM.
Consider `c1ccc2c(c1)OCCC2c1ccc2ccccc2c1` (centres unmarked) [AC069, 4-(naphthalen-2-yl)chroman], for which, on TCTP, the “affinity for TCTP (in words)” value is given as “excellent affinity” and the Kd amounted to 24 ± 16 µM. Also, in series [1], the “% (viability) at 1 μM” value is 0%, the “% (viability) at 10 μM” value was 33% and the “antiproliferative activity profile (in words)” value was “identical to that of sertraline”.
Turning to `CC(C)OC(=O)c1ccc(C2CCCc3ccccc32)cc1` (centres unmarked) [AC034, Isopropyl 4-(1,2,3,4-tetrahydronaphthalen-1-yl)benzoate], at TCTP, the “affinity for TCTP (in words)” value is recorded as “excellent affinity” and the affinity, expressed as Kd, was 29 ± 7 µM. Also, in series [1], the concentration for half-maximal inhibition (IC50) was 25 ± 9 µM and the “antiproliferative activity profile (in words)” value is listed as “identical to that of sertraline”.
The matching figures for `CC(=O)N[C@@H]1CC[C@H](c2ccc(C(=O)OC(C)C)cc2)c2ccccc21` (relative stereo) [AC056, Cis-isopropyl 4-(4-acetamido-1,2,3,4-tetrahydronaphthalen-1-yl)benzoate]: “excellent affinity”, 28.5 ± 10 µM, 17 ± 3 µM and “identical to that of sertraline”.
For the compound `c1ccc2c(c1)SCCC2c1ccc2ccccc2c1` (centres unmarked) [AC085, 4-(naphthalen-2-yl)thiochroman], at TCTP, the “affinity for TCTP (in words)” value was “excellent affinity” and the equilibrium dissociation constant (Kd) is 30 µM. For the same compound, in series [1], half-maximal inhibition (IC50) was put at 25 ± 1 µM and the “antiproliferative activity profile (in words)” value is listed as “identical to that of sertraline”.
For `c1ccc2c(c1)CCCC2c1ccc2[nH]ccc2c1` (centres unmarked) [AC082, 5-(1,2,3,4-tetrahydronaphthalen-1-yl)-1H-indole], the Kd on TCTP turned out to be 123 ± 33 µM. In addition, in series [1], the “% (viability) at 1 μM” value is given as 9 ± 1% and the “% (viability) at 10 μM” value amounted to 33%.
For `CC(=O)NC1CCC(c2cc(SC3OC(COC(C)=O)C(OC(C)=O)C(OC(C)=O)C3OC(C)=O)c(C(=O)Nc3cccc4cccnc34)c(S[C@@H]3OC(COC(C)=O)[C@@H](OC(C)=O)C(OC(C)=O)C3OC(C)=O)c2)c2ccccc21` (stereo in doubt) [AC249-cis, Cis-(2S,3R,4S,5R,6R)-2-((5-((4S)-4-acetamido-1,2,3,4-tetrahydronaphthalen-1-yl)-2-(quinolin-8-ylcarbamoyl)-3-(((2R,3S,4R,5S,6S)-3,4,5-triacetoxy-6-(acetoxymethyl)tetrahydro-2H-pyran-2-yl)thio)phenyl)thio)-6-(acetoxymethyl)tetrahydro-2H-pyran-3,4,5-triyl triacetate], the Kd on TCTP turned out to be 8 ± 2 µM.
At TCTP, `CC(=O)N[C@@H]1CC[C@H](c2ccc(C(=O)NC3OC(COC(C)=O)C(OC(C)=O)C(OC(C)=O)C3OC(C)=O)cc2)c2ccccc21` (stereo in doubt) [VM060-cis, Cis-(2R,3R,4S,5R,6R)-2-(4-acetamido-1,2,3,4-tetrahydronaphthalen-1-yl)benzamido)-6-(acetoxy-methyl)tetrahydro-2H-pyran-3,4,5-triyl triacetate] showed a Kd of 26 ± 8 µM. The “% (viability) at 10 μM” value in series [1] is recorded as 10 μM: 15% (viability).
`CC(=O)NC1CCC(c2ccc(Br)cc2)c2ccccc21` (mixture of isomers) [AC088, N-(4-(4-bromophenyl)-1,2,3,4-tetrahydronaphthalen-1-yl)acetamide]: the Kd on TCTP was determined as 135 ± 37 µM. Also, the “% (viability) at 10 μM” value in series [1] is reported as 10 μM: 33% (viability).
